Experiment [1] deals with T1, Delta(14)-sterol reductase (Zea mays, UniProt B4FS76).
T1 sequence (B4FS76 whole entry): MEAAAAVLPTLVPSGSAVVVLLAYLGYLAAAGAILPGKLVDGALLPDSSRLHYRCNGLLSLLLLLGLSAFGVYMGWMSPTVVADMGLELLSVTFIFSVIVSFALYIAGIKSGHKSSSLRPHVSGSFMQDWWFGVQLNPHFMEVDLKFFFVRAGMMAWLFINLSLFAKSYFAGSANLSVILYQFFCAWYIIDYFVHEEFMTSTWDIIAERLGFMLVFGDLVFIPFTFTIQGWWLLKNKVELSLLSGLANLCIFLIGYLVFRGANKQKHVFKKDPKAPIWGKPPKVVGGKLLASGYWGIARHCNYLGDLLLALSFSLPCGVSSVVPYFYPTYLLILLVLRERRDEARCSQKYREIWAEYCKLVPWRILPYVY
Briefly: Inhibition of Zea mays (maize) microsomal delta 8,14-steroid 14-reductase using delta 8,14-cholestadienol as substrate after 90 min by GC analysis.

In another experiment the target is T2, Sterol-8,7-isomerase (Zea mays, UniProt Q2TU57).
T2 sequence (Q2TU57 whole entry): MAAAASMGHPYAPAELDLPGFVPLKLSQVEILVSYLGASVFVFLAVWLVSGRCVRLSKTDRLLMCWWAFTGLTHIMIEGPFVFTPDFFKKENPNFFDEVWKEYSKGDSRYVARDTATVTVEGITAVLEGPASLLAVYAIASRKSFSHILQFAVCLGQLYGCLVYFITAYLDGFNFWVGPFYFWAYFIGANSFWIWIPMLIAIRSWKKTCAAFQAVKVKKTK
Briefly: Inhibition of Zea mays (maize) delta8,delta7-sterol isomerase.

In experiment [2] the target is T3, Cycloeucalenol cycloisomerase (Zea mays, UniProt B6TK44).
T3 sequence (B6TK44 whole entry): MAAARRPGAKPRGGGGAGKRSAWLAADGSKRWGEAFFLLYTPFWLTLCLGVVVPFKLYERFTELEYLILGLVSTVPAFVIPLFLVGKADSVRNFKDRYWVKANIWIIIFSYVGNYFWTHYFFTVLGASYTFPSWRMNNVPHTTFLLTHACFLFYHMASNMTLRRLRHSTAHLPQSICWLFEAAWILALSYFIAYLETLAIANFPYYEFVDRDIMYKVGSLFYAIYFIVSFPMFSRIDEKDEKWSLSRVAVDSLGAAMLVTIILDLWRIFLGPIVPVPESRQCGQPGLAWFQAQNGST
Briefly: Inhibition of Zea mays (maize) cycloeucalenol-obtusifolial isomerase.

Experiment [3] concerns the target T4, Cycloeucalenol cycloisomerase (Zea mays) (UniProt B6TK44).
T4 sequence (whole entry): T3 sequence (B6TK44 whole entry)
Nature of the experiment: Inhibition of Zea mays (maize) cycloeucalenol-obtusifolial isomerase at 200 uM.

Experiment [4] has as its target T5, Delta(14)-sterol reductase (Zea mays) (UniProt B4FS76).
T5 sequence (whole entry): T1 sequence (B4FS76 whole entry)
Briefly: Ratio of compound I50 to delta8,14-cholestadien-3beta-ol Km for Zea mays (maize) delta 8,14-steroid 14-reductase.

For experiment [5], the target named is T6, Sterol-8,7-isomerase (Zea mays) (UniProt Q2TU57).
T6 sequence (whole entry): T2 sequence (Q2TU57 whole entry)
Briefly: Inhibition of Zea mays (maize) delta8,delta7-sterol isomerase at 200 uM.

Experiment [6] addresses T5, Delta(14)-sterol reductase (Zea mays). Briefly: Inhibition of Zea mays (maize) microsomal delta 8,14-steroid 14-reductase using delta 8,14-cholestadienol as substrate at 200 uM after 90 min by GC analysis.

A value given as a limit tells only on which side of the number the result lay.

Broadly, the IC50 is the concentration needed to halve the response being measured. Low values mean greater potency, high ones weaker potency. `CC(Cc1ccc(C(C)(C)C)cc1)CN1C[C@@H](C)O[C@@H](C)C1` (stereo partly drawn) [FENPROPIMORPH]: the IC50 in experiment [1] was 0.8 µM; at Sterol-8,7-isomerase, 0.4 µM; in experiment [2] it was 0.4 µM.

Consider `C[C@@H]1[C@@H](O)CC[C@]2(C)CNCC[C@@H]12`, for which the half-maximal inhibitory concentration (IC50) in experiment [1] worked out at 4.5 µM; at Sterol-8,7-isomerase it was 10 µM; in experiment [2], 17.5 µM.

As to `C[C@@H]1[C@@H](O)CC[C@]2(C)CN(Cc3ccccc3)CC[C@@H]12`, the results for the IC50 (in experiment [1]; on Sterol-8,7-isomerase; in experiment [2]) were 0.08 µM, 0.13 µM and 0.1 µM, respectively.

Broadly, the inhibition is the percentage by which the read-out fell short of the control. A higher inhibition goes with strong suppression. On to `C=C(CC[C@@H](C)[C@H]1CCN=C2C3=C(CC[C@@]21C)[C@@]1(C)CC[C@H](O)C[C@@H]1CC3)C(C)C`, for which the inhibition in experiment [3] is less than 5%. Also, the values for the IC50 (in experiment [1]; on Sterol-8,7-isomerase) were 0.03 µM and 0.8 µM, respectively. Also, the Ratio in experiment [4] was found to be 0.00015.

On to `C[C@@H]1[C@@H](O)CC[C@]2(C)CCCC[C@@H]12`, for which the inhibition in experiment [3], in experiment [5] and in experiment [6] was less than 5% in each case.

For the compound `CCCCCCCCCCCCCN1CC(C)OC(C)C1` (stereo not drawn) [TRIDEMORPH], the IC50 in experiment [1] came out at 25 µM; against Sterol-8,7-isomerase it was 0.4 µM; in experiment [2], 0.4 µM.

As for `CC(Cc1ccc(C(C)(C)C)cc1)CN1CCCCC1` (stereo not drawn) [FENPROPIDIN], the IC50 was found to be 3 µM in experiment [1], 0.08 µM against Sterol-8,7-isomerase and 0.2 µM in experiment [2].

In experiment [3], `Clc1ccccc1CNC[C@H]1CC[C@H](CNCc2ccccc2Cl)CC1` returned an inhibition of less than 5%. Moreover, the IC50 in experiment [1] was determined as 40 µM; against Sterol-8,7-isomerase, 0.5 µM.

Consider `CC(C)CCCC(C)CCCC(C)N1CC[C@H]2[C@H](C)[C@@H](O)CC[C@]2(C)C1` (stereo partly drawn), for which the IC50 in experiment [1] came to 0.3 µM; against Sterol-8,7-isomerase, 0.2 µM; in experiment [2], 0.025 µM.

Consider `CC(Cc1ccc(C(C)(C)C)cc1)CN1CC[C@H]2[C@H](C)[C@@H](O)CC[C@]2(C)C1` (stereo partly drawn), for which the figures for the IC50 in experiment [1] and in experiment [2] were 0.07 µM and 0.1 µM, respectively. Further, the Ratio in experiment [4] was found to be 6.5e-05.

With `CCCCCCCCCCCCN1CC[C@H]2[C@H](C)[C@@H](O)CC[C@]2(C)C1`, the values for the IC50 in experiment [1] and in experiment [2] were 0.09 µM and 0.1 µM, respectively.

Source of the values: ChEMBL document CHEMBL3044637, “Microsomal delta 8,14-sterol delta 14-reductase in higher plants. Characterization and inhibition by analogues of a presumptive carbocationic intermediate of the reduction reaction” (Eur J Biochem, 1989).
